In assay [1] the test system is tumors in SCID mice. Nature of the assay: Tumor sensitivity to gancyclovir in tumor-bearing SCID mice. It counts as in vivo, mouse. Here is the method:
SCID mouse studies. The tumorigenicity of cell lines was assayed by subcutaneous injection of cells into the flanks of immunodeficient (SCID) mice. Cells were dislodged from monolayer culture with trypsin, washed, and suspended in PBS. SCID mice were inoculated subcutaneously with 1×10^6 cells per site. Animals were monitored every third day for the development of growth at the sites of injection. Animals were sacrificed at 24 weeks or when tumors reached 1 to 2 cm in diameter. Tumors were processed for routine histology and immunohistochemistry. To determine tumor sensitivity to treatment with gancyclovir, some animals were given a 0.2 ml intraperitoneal injection of gancyclovir (50 mg/kg) daily for 14 days when tumors reached 1-1.2 cm in size.

Assay [2] concerns NKNT-3 cells. The experiment in a line: MTT cytotoxicity assay. It counts as cell-based, human. Here is the method: MTT Cytotoxicity Assays. Sensitivity of NKNT-3 cells to either 5 μM ganciclovir or G418 (500 μg/ml) was confirmed by 3-(4,5-dimethyl-2-thiazolyl)-2,5-diphenyl 2H-tetrazolium bromide (MTT) cytotoxicity assays. NKNT-3 cells were plated in a 96-well microplate at 5×10^3 cells per well to obtain a growth curve. On days 1, 3, 5, and 7, MTT (20 μg/ml) was added to a different well, incubated for 4 h, and then reacted with 150 μl of isopropanol for 10 min. Relative percentage of viability was determined by the ratio of absorbance at 570 and 630 nm with Bio-Rad EIA reader (Bio-Rad, Richmond, Calif.).
On the technique in general: Tetrazolium assays rely on reduction of a dye to a coloured formazan, in cell work by metabolically active cells.

Assay [3] relates to C8-B/Ras cells. Nature of the assay: Soft agar assay, sensitivity of colonies to gancyclovir. It counts as cell-based, rat. Here is the method:
Soft agar assay. To assay the capacity for anchorage independent growth, 5×10^4 cells were suspended in 2 ml of 0.3% Difco agar in IM and gently overlaid onto 60 mm dishes containing a lower layer of 0.5% agar. Cultures were fed every 5 to 7 days with a small amount of media. After 20 days of growth at 37° C., the dishes were stained with 0.5 mg/ml p-iodonitrotetrazolium violet (Sigma Chemical Co., St. Louis, Mo.), and macroscopically visible colonies (>100 μm in diameter) were scored. HepG2 cells were used as a positive control.

The source of these data is patent publication US20070264243A1, “REVERSIBLY IMMORTALIZED HEPATOCYTES AND METHODS OF USE” (priority 1999, published 2007).

Structures are written as SMILES. “Also recorded” adds a separate entry of the source.

Consider `Nc1nc(O)c2ncn(COC(CO)CO)c2n1` [gancyclovir], for which, in assay [1] (4-week post-gancyclovir observation period), the tumor recurrence entry is on record as “no tumor recurrence”. Also, in assay [1] (gancyclovir 50 mg/kg, 14-day course), the “tumor response by the end of gancyclovir treatment” value is “could no longer be identified clinically or histologically; also recorded: complete regression of established tumors”. Also, the “time until tumors stopped growing” value in assay [1] (gancyclovir 50 mg/kg, 14-day course, tumors >1 cm) is on record as not above 5 days. Moreover, the “sensitivity of NKNT-3 cells to ganciclovir” value in assay [2] (5 μM ganciclovir) was “confirmed”. Also, the “rare three-dimensional colonies after Ad-Cre infection, sensitivity to gancyclovir” value in assay [3] (C8-B/Ras cells after Ad-Cre infection) is given as “all were sensitive”. Besides, the “C8-B/Ras soft agar colonies, sensitivity to gancyclovir” value in assay [3] (media containing 5 μM gancyclovir) was “could be eliminated”.
In the case of `CN[C@@H]1[C@@H](O)[C@@H](O[C@@H]2[C@@H](O)[C@H](O[C@H]3O[C@H]([C@@H](C)O)[C@@H](O)[C@H](O)[C@H]3N)[C@@H](N)C[C@H]2N)OC[C@]1(C)O` [G418], the “sensitivity of NKNT-3 cells to G418” value in assay [2] (G418 500 μg/ml) was “confirmed”.
